This note sets out measurements from article PMC6044636 (ACS Omega, 2016).

For this assay, the target named is A2AR (Homo sapiens, UniProt P29274). The class given is binding.

pKi: −log10 of the molar value.

One may read the pKi as −log10 of the Ki, conventionally taken in molar units.

Sequence of A2AR (P29274 whole entry): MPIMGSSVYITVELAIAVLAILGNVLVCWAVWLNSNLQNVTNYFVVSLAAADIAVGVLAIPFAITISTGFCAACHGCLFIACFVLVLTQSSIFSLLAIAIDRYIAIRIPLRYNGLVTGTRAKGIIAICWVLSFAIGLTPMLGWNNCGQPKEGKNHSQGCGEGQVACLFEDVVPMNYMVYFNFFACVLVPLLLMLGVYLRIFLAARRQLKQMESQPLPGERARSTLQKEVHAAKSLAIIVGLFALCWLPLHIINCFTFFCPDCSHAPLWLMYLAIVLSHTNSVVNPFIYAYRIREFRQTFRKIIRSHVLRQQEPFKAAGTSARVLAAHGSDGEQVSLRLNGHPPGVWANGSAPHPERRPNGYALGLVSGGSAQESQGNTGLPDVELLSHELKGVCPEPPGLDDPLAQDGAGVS

`Cn1c(-n2nccn2)nc2c(N)nc(CCC3CCCCC3)nc21` [Compound 8, 2-(2-Cyclohexylethyl)-9-methyl-8-(2H-1,2,3-triazol-2-yl)-9H-purin-6-amine] had a pKi of 8.92.
